Experimental data published in patent publication US20010047099A1, “4-aminopicolinates and their use as herbicides” (priority 2000, published 2001).

How the values were obtained:
Assay type in all cases: in vivo
[1] = tested on: sicklepod (Cassia obtusifolia); experiment: Range & Pasture Crop Testing (postemergence track sprayer); conditions: Table 8; salts of Compound 1; dose for 80 percent control
Procedure, shortened: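 Postemergence track-sprayer application at 187 L/ha, compounds formulated in 97:3 acetone:DMSO with 0.25% X-77, five rates (X serially diluted to 1/16×). Visual percent control (0–100 scale, burn down) rated 3 weeks after treatment; GR50/GR80 derived by probit analysis.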

[2] = tested on: yellow nutsedge (Cyperus esculentus); experiment: Postemergence herbicidal activity; conditions: Table 3; weeds in rice; rate 250 ppm
Procedure, shortened: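 Greenhouse plants at first or second true leaf stage sprayed to coverage with compound in acetone/water/isopropanol/DMSO/crop oil/surfactant mixture; 1 ppm ≈ 1 g/Ha. Plants sub-irrigated afterward. Injury scored visually after 2 weeks versus untreated plants, 0 (none) to 100% (complete kill).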

[3] = tested on: common ragweed (Ambrosia artemisiifolia); experiment: Range & Pasture Crop Testing (postemergence track sprayer); conditions: Table 9; rate 70 g/Ha; 3 week evaluation
Description: (§1) Rates are calculated based upon 5 doses being applied. The high rate (X), followed by serial dilutions of 1/2×, 1/4×, 1/8× and 1/16×. Compound requirements are based upon the 187 L/ha carrier volume, specifications of the delivery system (Mandel track sprayer) and generating 24 mL of technical spray material to allow for the dilutions and overage in the sprayer. [formula]
(§2) All technical materials were formulated in 97:3 (acetone:DMSO) with 0.25% X-77. The total volume of solvent is maintained at less than 7%. An overhead Mandel track sprayer calibrated to deliver 187 L/ha was used for all treatment applications (postemergence). Picloram was included as a comparison treatment.
(§3) Solutions were applied with a mechanized track-sprayer at the following settings:
(§4) Spray height: 17 inches above top of plants
(§5) This provides an application volume of 187 L/ha.
(§6) Percent weed control (burn down) was evaluated 3 weeks after treatment. Visual control on a 0-100 linear scale was used, with 0 representing no control and 100 representing total control. Burn down ratings were taken for annual and perennial weed species.

[4] = tested on: crested wheatgrass (Agropyron cristatum) (grass crop); experiment: as above; conditions: Table 9, rate 70 g/Ha, 3 weeks after treatment
Description: as §1, §2, §3, §4, §5, §6

[5] = tested on: broadleaf dock (Rumex obtusifolia); experiment: as above; conditions: Table 9; rate 70 g/Ha; 3 weeks after treatment
Description: as §1, §2, §3, §4, §5, §6

[6] = tested on: wheat (Triticum aestivum); experiment: Postemergence herbicidal activity, selectivity to wheat; conditions: Table 5; crop (wheat); rate 250 ppm
Description: Seeds of the desired test plant species were planted in Grace-Sierra MetroMix® 306 planting mixture, which typically has a pH of 6.0 to 6.8 and an organic matter content of about 30 percent, in plastic pots with a surface area of 64 square centimeters. When required to ensure good germination and healthy plants, a fungicide treatment and/or other chemical or physical treatment was applied. The plants were grown for 7-21 days in a greenhouse with an approximate 15 hr photoperiod which was maintained at about 23-29° C. during the day and 22-28° C. during the night. Nutrients and water were added on a regular basis and supplemental lighting was provided with overhead metal halide 1000-Watt lamps as necessary. The plants were employed for testing when they reached the first or second true leaf stage.
A weighed amount, determined by the highest rate to be tested, of each test compound was placed in a 20 mL glass vial and was dissolved in 4 mL of a 97:3 v/v (volume/volume) mixture of acetone and dimethyl sulfoxide (DMSO) to obtain concentrated stock solutions. […] The concentrated stock solutions obtained were diluted with an aqueous mixture containing acetone, water, isopropyl alcohol, DMSO, Atplus 411F crop oil concentrate, and Triton X-155 surfactant in a 48.5:39:10:1.5:1.0:0.02 v/v ratio to obtain spray solutions of known concentration. The solutions containing the highest concentration to be tested were prepared by diluting 2 mL aliquots of the stock solution with 13 mL of the mixture and lower concentrations were prepared by serial dilution of the stock solution. Approximately 1.5 mL aliquots of each solution of known concentration were sprayed evenly onto each of the test plant pots using a DeVilbiss atomizer driven by compressed air pressure of 2 to 4 psi ([…]) to obtain thorough coverage of each plant. Control plants were sprayed in the same manner with the aqueous mixture. In this test an application rate of 1 ppm results in the application of approximately 1 g/Ha.
The treated plants and control plants were placed in a greenhouse as described above and watered by sub-irrigation to prevent wash-off of the test compounds. After 2 weeks the condition of the test plants as compared with that of the untreated plants was determined visually and scored on a scale of 0 to 100 percent where 0 corresponds to no injury and 100 corresponds to complete kill.

Compound	Post-emergent GR80 CASOB [1] [g/Ha]	post emergent evaluation - % control CYPES [2] [%]	Post-emergent Evaluation - % control AMBEL [3] [%]	Post-emergent Evaluation - % control AGRCR [4] [%]	Post-emergent Evaluation - % control RUMOB [5] [%]	Post-emergent Evaluation - % control TRZAS [6] [%]
Nc1cc(Cl)nc(C(=O)O)c1Cl [Compound 1, 4-Amino-3,6-dichloropyridine-2-carboxylic acid]	11	75	–	–	–	–
COC(=O)c1nc(Cl)cc(N)c1Cl [Compound 3, methyl 4-amino-3,6-dichloropyridine-2-carboxylate]	–	–	100	30	100	–
Nc1cc(Br)nc(C(=O)O)c1Cl [Compound 14, 4-Amino-6-bromo-3-chloropyridine-2-carboxylic acid]	–	75	–	–	–	0
